Assay results taken from patent publication US9943502B2, “Lung cancer adjuvant therapy” (Texas Tech University System, priority 2014, dated 2018).
Entries after “also recorded” stand apart in the source; their conditions may differ.

Assays:
BEAS-2B cells = experiment: Soft agar colony assay of NNK-transformed BEAS-2B cells; assay type: cell-based, human; settings: NNK 15 μM for 24 h, then 9 passages (BEAS-2BNNK), P<0.05
Experimental: (§1) Human normal lung epithelial cells BEAS-2B with NNK exposure/transformation or CRM1 stable overexpression. Human normal bronchial epithelial cell line BEAS-2B was obtained from American Type Culture Collection (ATCC). (1) For short-term NNK exposure, BEAS-2B cells were treated with 0, 10, 75, or 150 μM NNK for 24 and 72 h in triplicate as described in our previous study^29; (2) BEAS-2BNNK, an in vitro transformed cell model derived from BEAS-2B, was generated by exposure to NNK (15 μM) for 24 h and then continuously sub-cultured for 9 passages. […] Similarly, BEAS-2B was transfected with vector control for comparison. BEAS-2B, BEAS-2BNNK, and BEAS-2BCRM1+ cells were cultured in LHC-9 medium (Invitrogen) containing 100 U penicillin/mL and 100 μg/mL streptomycin.
Soft agar colony assay (Anchorage independent growth assay). Cells were suspended at 5×10^4 cells/mL for BEAS-2B, BEAS-2BNNK, and BEAS-2BCRM1+ or 2×10^4 cells/mL for A549 and A549CRM1− cells in growth medium containing 0.35% agar. Cell suspension was added to a 6-well tissue culture plate pre-coated with 0.7% solid agar. After 9-11 days of incubation (9 days for A549 and 11 days for BEAS-2B), the number of colonies/microscope area (6 randomly selected areas/well) was counted and their sizes were analyzed using cell staining (0.005% Crystal Violet) by microscope. This study was done in triplicate.

phospho-p53 (Thr55) = phospho-p53 (Thr55) protein expression in BEAS-2B cells after NNK exposure; assay type: cell-based, human
Experimental: as §1

lung tissues = experiment: Mouse model of NNK-induced lung tumors, Western blot of lung tumors; assay type: in vivo, FVB/N mice; settings: NNK-treated mice, P<0.01
Experimental: Mouse model and NNK-induced lung tumors. Male FVB/N mice are an intermediately susceptible strain with regard to spontaneous lung tumor formation and have been used for studies of NNK-induced lung tumorigenesis^31. Mice were each given two intra-peritoneal injections of 3 mg NNK per week (NNK-treated group, n=8) or 0.9% saline (vehicle control group, n=8). From each group, mice were sacrificed at 32-weeks after the last NNK- or saline-treatment. Lung tissues were fresh frozen or formalin-fixed and paraffin-embedded.

CRM1 = CRM1 expression (qRT-PCR, Western blot) in NNK-transformed BEAS-2B cells; assay type: cell-based, human; settings: BEAS-2BNNK, P<0.05
Experimental: as §1
Isolation of total RNA and quantitative real-time PCR (qRT-PCR). Total RNA was isolated using an RiNeasy® plus mini kit (Qiagen) following the manufacturer protocol. One-Step RT-PCR kit with SYBR green was used for amplification of total RNA (75 ng) by following the manufacturer's protocol (BioRad) and our recent publication^32. […] Threshold cycle number (Ct value) was analyzed using CFX Manager Software (Bio-Rad). The Ct value of CRM1 was normalized to the Ct value of GAPDH from same sample and the fold change in the expression was calculated by using the ΔΔCt method. […]

[1] = system: normal bronchial epithelial cells; settings: cited from earlier work
lung cancer cells = settings: cited from earlier work
A549 cells [2] = experiment: Analysis of cell cycle by flow cytometry; assay type: cell-based; settings: 25 μM cisplatin and/or 0.5 nM LMB, 24 and 48 h
Experimental: Analysis of cell cycle by flow cytometry. The cells were harvested after 24 and 48 h of treatment. […] Cell cycle analysis was conducted by a Guava EasyCyte™ Flow Cytometer (Millipore) as previously described^32, 33. Each sample was run in triplicate and each experiment was repeated three times.

[3] = system: lung cancer A549 cells xenografts; experiment: Treatment of mouse xenografts: tumor growth; assay type: in vivo, female athymic mice; settings: intra-tumoral injection three times per week; Cis 2.5 mg/Kg, LMB 2 μg/Kg
Experimental: Xenograft animal model. The handling of animals was in accordance with the Institutional Animal Care and Use Committee. Female athymic mice, 7-8 weeks of age and 23.5 g in weight (Charles River Laboratory) received subcutaneous injection of 1×10^6 A549 or A549CRM1− cells in the lower flank (n=8/group). Tumor volume was measured by a digital caliper (Thermo Fisher Scientific). The major longitudinal diameter (length) and the major transverse diameter (width) were determined. Tumor volume was calculated based on caliper measurements by the following formula: Tumor volume=½ (length×width^2).
(§2) Treatment of mouse xenografts. Thirty-two female athymic mice, 7-8 weeks of age and 23.5 g in weight (strain code 088, Charles River Laboratory) were each injected subcutaneously with 1×10^6 lung cancer A549 cells in the lower flank. […] All injections were carried out for three times per week. Mice body weights and tumor sizes were measured three times per week.

A549 cells [4] = experiment: Array-based SYBR Green RT-PCR (RT2 Profiler PCR array, Human Cancer Drug Targets, 84 genes); assay type: cell-based
Experimental: Array-based SYBR® Green RT-PCR. Constitutive gene expression profiling was performed using the RT^2 Profiler™ PCR array to analyze the expression of 84 genes involving in cancer signal pathways (Human Cancer Drug Targets, Qiagen) based on manufacturer's instructions and our previous publications^33, 34. Studies were performed in duplicate for each group.

[5] = in vivo; cited from earlier work
[6] = Treatment of mouse xenografts: body weight and side effects; assay type: in vivo, female athymic mice; settings: two weeks after treatment; without deteriorating behavior and health condition
Experimental: as §2

A549 cells [7] = experiment: Western blot analyses of PARP1, p21 and survivin; assay type: cell-based; settings: 24 and 48 h, P<0.05
Experimental: Western blot analyses. […] Immunoblotting was performed using different primary antibodies and α-tubulin as the internal control.

A549CRM1− cells = experiment: Cell viability assay (MTT); assay type: cell-based; settings: FIG. 4A, P<0.05
Experimental: Cell viability assay. Cell viability was evaluated using the MTT (3-(4,5-dimethylthiazol-2-yl)-2,5-diphenyltetrazolium bromide) assay as previously described^29, 33. […] Studies were performed independently in triplicate.

[8] = cisplatin 10 and 25 μM with or without 0.5 nM LMB

## CN(CCCC(=O)c1cccnc1)N=O [NNK, 4-(methylnitrosamino)-1-(3-pyridyl)-1-butanone]
BEAS-2B cells
  soft agar colony number and colony size compared with vehicle-treated BEAS-2B cells: significant increase in both colony number and colony size
phospho-p53 (Thr55); BEAS-2BNNK cells, FIG. 2B
  phosphorylated-p53 (p-p53) at Thr55 in NNK-transformed cells: overexpressed
phospho-p53 (Thr55); NNK 10, 75 and 150 μM for 24 and 72 h, P<0.05
  protein expression levels of p-p53 at Thr55 compared to vehicle-treated BEAS-2B cells: dose-dependent decrease
Lung tissues; 32 weeks after last treatment
  CRM1 expression in lung tumor tissues compared with normal tissues: increased CRM1 expression
Lung tissues
  p-p53 at Thr55 in lung tumors compared with normal lung tissues: significant increase
CRM1
  CRM1 expression at the mRNA level compared to vehicle-treated BEAS-2B cells: 2.6 folds
  CRM1 expression at the protein level compared to vehicle-treated BEAS-2B cells: ~1.5 folds

## CCC(=C/[C@H](C)C/C=C/C(C)=C/[C@@H](C)C(=O)[C@@H](C)[C@H](O)[C@@H](C)C/C(C)=C/C(=O)O)/C=C/[C@@H]1OC(=O)C=C[C@@H]1C [LMB, leptomycin B]
[1]
  effects on normal bronchial epithelial cells: minimal effects
Lung cancer cells
  effect on lung cancer cells: inhibit lung cancer cell growth and induce cytotoxicity
A549 cells [2]
  cell cycle distribution compared with the control: did not alter the cell cycle distribution
[3]
  tumor growth compared to the vehicle-treated control: growth curves followed a similar trend
A549 cells [4]; 0.5 nM LMB
  gene expression profile compared to the control group: No significant difference
[5]
  side effects in the phase I clinical trial: malaise and anorexia

## N.N.[Cl][Pt][Cl] [Cis, cisplatin]
[6]
  body weight for mice: started to decrease gradually
A549 cells [7]
  survivin expression level compared to controls: significantly decreased
A549 cells [7]; [8]
  PARP1 protein expression compared to vehicle-treated cells: significantly increased in a dose-response manner
  p21 protein expression compared to vehicle-treated cells: significantly increased in a dose-response manner
A549 cells [2]
  cell cycle distribution compared with the control: significantly higher proportion of cells in S and G2/M phases
[3]
  tumor growth compared to the vehicle-treated control: significant decrease in tumor growth; also recorded: significantly delayed tumor growth
A549CRM1− cells
  sensitivity of A549CRM1− cells compared with A549 cells: even more sensitive
A549 cells [4]; 25 μM cisplatin, P<0.05
  expression level of AURKA, AURKB, CDK1, HIF1A, MDM4, PLK1, PLK4, and TNKS compared to the control: significantly decreased expression level
  expression of CTSB, GRB2, MDM2, and NF-κB compared to the control: increased expression
A549 cells [4]; A549 cells
  NF-κB expression: increased expression of NF-κB
